From patent US9534016B2, “Netrin loop peptide mimetics and uses thereof” (Buck Institute for Research on Aging, priority 2011, dated 2017)

Test system: ERK phosphorylation associated with APP based cell signaling
Assay: ERK phosphorylation, Western blot, B103 cells co-transfected with APP
Description: This effect is not seen with cyclic peptide-2 or cyclic peptide-3. […] Cyclic peptide-1 is APP specific
ERK phosphorylation is associated with cell signaling. […] This assay was based on a western blot analysis.

C-P-H-F-C [cyclic peptide-2]
ERK phosphorylation (Western blot, APP cells (B103 co-transfected with APP), cyclic peptide-1 at 21 uM): not seen | modulate ERK phosphorylation and/or switch APP processing from aberrant to normal (cyclized loop peptides prepared and tested): shown to modulate ERK phosphorylation and/or to switch APP processing from aberrant to normal
